Measured values taken from patent US11154057B2, “Use of nootkatone to treat mosquito infestations” (EVOLVA SA, priority 2016, dated 2021).

What was measured:
Format in all cases: in vivo
Aedes aegypti larvae [1] = test system: Aedes aegypti larvae
Text: This example describes a laboratory bioassay in which groups of mosquito larvae were exposed to a nootkatone-containing composition to determine larval susceptibility to nootkatone.
One milliliter of a solution of nootkatone in ethanol was applied directly to 100 milliliters of water containing larvae, using a micropipette. One treatment condition used 3% (v/v) nootkatone in ethanol, and a second treatment condition used 1% (v/v) nootkatone in ethanol, for final concentrations of 0.03% or 0.01% (v/v), respectively. One milliliter of pure ethanol was used as a control. Four replicates of 25 larvae were tested per treatment. Clean, glass 600 mL laboratory beakers were used as test containers such that the surface area of the water to be treated was 54 cm^2.
Larvae were observed after 24 hours post-introduction to the test containers.
(§1) Readings were discontinued if treated mortality reached 100%, or control mortality exceeded 20%.

Aedes aegypti larvae [2] = assay: Liquefied nootkatone dripped onto the water surface as larvicide (Example No. 9, Treatment 1); settings: thirty one microliters liquefied nootkatone on 100 mL water; 25 larvae; 24 hours
Procedure: (§2) In this example, nootkatone-containing compositions were evaluated for their ability to act as a larvicide by coating a water surface. Mixed sex 3rd and 4th instar Aedes aegypti larvae (Yellow fever mosquito) were tested.
98% pure nootkatone crystals were held at 38° C. until they liquefied. Previous testing has shown that 1 mL of a 3% solution of nootkatone dissolved in ethanol, when added to 100 mL of water containing mosquito larvae, kills 100% of larvae in less than 24 hours. This experiment tested whether an equivalent amount of liquefied nootkatone alone is able to kill larvae. Thirty one microliters of liquified nootkatone crystals were dripped onto the surface of 100 mL of water in a 600 mL clean, glass beaker containing 25 mixed sex 3rd and 4th instar Aedes aegypti larvae.

Aedes aegypti larvae [3] = assay: Larval bioassay comparing nootkatone with soy oil and mineral oil (Example No. 2); settings: FIG. 3
Text: This example describes a laboratory bioassay in which groups of mosquito larvae were exposed to compositions that contain oils, but not nootkatone, to determine whether larval mortality was due to suffocation by oils in general, or due to a specific property of nootkatone.
One milliliter of a solution of oil in ethanol was applied directly to 100 milliliters of water containing larvae, using a micropipette. One treatment condition used 3% (v/v) soybean oil in ethanol, and a second treatment condition used 3% (v/v) mineral oil in ethanol, for final concentrations of 0.03% (v/v), respectively. One milliliter of pure ethanol was used as a control, and 0.03% (v/v) nootkatone in ethanol was included as a comparison of efficacy. Two replicates of 25 larvae were tested per treatment in clean, glass 600 mL beakers.
as §1

Aedes aegypti larvae [4] = assay: Nootkatone crystals dropped onto the water surface as larvicide (Example No. 9, Treatment 3); settings: for Alive / Dead / KD: 30 mg NK crystals in 100 mL water
Procedure: as §2
Standard storage conditions for nootkatone crystals is 4° C., therefore, the ability of crystals to coat a water surface without first liquifying them was tested. 30 mg of 98% pure nootkatone crystals was weighed and gently dropped onto the surface of 100 mL of water in a 600 mL clean, glass beaker containing 10 mixed sex 3rd and 4th instar Aedes aegypti larvae (3 replicates). Three control replicates of 10 larvae each were placed in identical beakers of 100 mL of water, but without nootkatone. All beakers were provided with finely ground fish food, and they were maintained at room temperature (˜72° F.).

3rd/4th instar larvae = assay: Duration of protection from larvae, Method 1: daily addition of new larval cohorts to treated beakers (Example No. 4)
Procedure: Method 1: Clean, glass 600 mL beakers were set up as test containers (such that the surface area of water to be treated was 54 cm^2), and were treated with 1 mL of 3% nootkatone in ethanol (v/v), or 1 mL of ethanol alone, as in Example No. 1, to achieve a final concentration of 0.03% nootkatone (v/v). After 24 hours, 100% of larvae were dead in the treated beakers, but 100% were alive in the control beakers, as in Example No. 1. An additional cohort of 25 larvae was added to each treatment beaker in the smallest practical volume of additional water, estimated at 1 mL per beaker. After an additional 24 hours, total live and dead larvae were counted and recorded. Testing continued by addition of new larval cohorts (25 per beaker, per day) for additional 24 hour periods until either there were no available 3rd/4th instar larvae, or until the rate of larval killing decreased.
In two replicate experiments, larvae cohorts were added to test containers in the presence of 0.03% nootkatone, 1% ethanol, starting 24 to 72 hours after addition of nootkatone and ethanol to the test containers (see FIGS. 5 and 6). In the second experiment, additional additional larval replicates were added simultaneously to test containers in the presence of 0.01% nootkatone, 1% ethanol (see FIG. 6).
In a separate experiment with the same experimental set-up, test containers were inoculated with nootkatone in ethanol 48 hours prior to addition of larvae (see FIG. 7). In these experiments, 100% of larvae were killed within 24 hours up to a week after nootkatone treatment. One week after addition of nootkatone, larval mortality was still at 94%.

[5] = 30 mg nootkatone crystals, at 27 hours

C=C(C)[C@@H]1CCC2=CC(=O)C[C@@H](C)[C@]2(C)C1 [Nootkatone, nootkatone]
larvae killed, on average (Aedes aegypti larvae [1]; 0.01% (v/v) nootkatone final, 24 hours of exposure, four replicates): 80% | mortality (Aedes aegypti larvae [1]; 0.01% (v/v) nootkatone final, after 48 hours): 100% | Dead (mortality), mean (Aedes aegypti larvae [1]; 0.03% (v/v) nootkatone final (1 mL of 3% in ethanol to 100 mL water), 54 cm^2, 24 hours post introduction): 100% | Affected, mean (Aedes aegypti larvae [1]; 0.03% (v/v) nootkatone final, 1% ethanol, 100 mL water, 54 cm^2, 24 hours post introduction): 100.0% | Morbidity (M), mean (Aedes aegypti larvae [1]; 0.03% (v/v) nootkatone final, 1% ethanol, 100 mL water, 54 cm^2, 24 hours post introduction, four replicates of 25 larvae): 0% | kill rates for mosquito larvae compared with nootkatone dissolved in ethanol (Aedes aegypti larvae [2]): not as high as previous testing | larvae killed (Aedes aegypti larvae [3]; 0.03% (v/v) final in water with ethanol, in 24 hours, two replicates of 25 larvae): 100% | effectiveness of killing larvae versus soy oil and mineral oil (Aedes aegypti larvae [3]; 0.03% (v/v), after 24 hr treatment): more effective than either soy oil or mineral oil | Alive (Aedes aegypti larvae [4]; 1 hr): 100% | Dead (Aedes aegypti larvae [4]; 1 hr): 0% | KD (Aedes aegypti larvae [4]; 1 hr): 0% | Alive (Aedes aegypti larvae [4]; 27 hr): 53% | Dead (Aedes aegypti larvae [4]; 27 hr): 7% | KD (Aedes aegypti larvae [4]; 27 hr): 40% | Alive (Aedes aegypti larvae [4]; 54 hr): 3% | Dead (Aedes aegypti larvae [4]; 54 hr): 70% | KD (Aedes aegypti larvae [4]; 54 hr): 27% | Alive (Aedes aegypti larvae [4]; 77.5 hr): 0% | Dead (Aedes aegypti larvae [4]; 77.5 hr): 97% | KD (Aedes aegypti larvae [4]; 77.5 hr): 3% | killing (Aedes aegypti larvae [4]; 30 mg nootkatone crystals, after more than 3 days): below 100% | larvae alive (unaffected plus affected) (Aedes aegypti larvae [4]; [5]): 93% | larvae that appeared to be unaffected (Aedes aegypti larvae [4]; [5]): ~50% | mortality rate (3rd/4th instar larvae; 0.01% nootkatone (v/v), 72 hours after application, FIG. 6): about 10% | mortality (3rd/4th instar larvae; 0.01% nootkatone (v/v), larvae added after application, through 48 hours, FIG. 6): 100% | larvae dead (3rd/4th instar larvae; 0.03% nootkatone (v/v), after 24 hours, first cohort): 100% | mortality (3rd/4th instar larvae; 0.03% nootkatone (v/v), larvae added 0, 24, 48, and 78 hours after application, FIG. 5): 100% | mortality (3rd/4th instar larvae; 0.03% nootkatone (v/v), larvae added after application, through 48 hours, FIG. 6): 100% | mortality (3rd/4th instar larvae; 0.03% nootkatone (v/v), through 72 hours after application, FIG. 6): 100% | mortality rates (3rd/4th instar larvae; 0.03% nootkatone (v/v), through one week of treatment, FIG. 7): greater than 90% | larvae killed within 24 hours (3rd/4th instar larvae; 0.03% nootkatone, containers inoculated 48 hours prior to larvae, up to a week after nootkatone treatment, FIG. 7): 100% | larval mortality (3rd/4th instar larvae; 0.03% nootkatone, one week after addition of nootkatone, FIG. 7): 94%
